# According to PMC3906007, “Discovery of a Small Molecule Agonist of Phosphatidylinositol 3-Kinase p110α That Reactivates Latent HIV-1” (PLoS ONE, 2014):
# Like-named read-outs stand apart in the source and are kept apart here.
# Assays:
# [1] = test system: latent HIV-1 in ACH2 cell line; test: Latent HIV-1 reactivation in ACH2 cells (quantitative PCR of early and late viral RNA transcripts); assay type: cell-based
# Method: Three different cell lines of HIV-1 latency were used in this study. These included J89GFP, U1 and ACH-2 cells. The J89GFP cells were a kind gift from Dr. David Levy. The ACH-2 and U1 cells were obtained through the AIDS Research and Reference Reagent Program, Division of AIDS, NIAID, NIH: Dr. Thomas Folks contributor [19]–[21]. Reactivation of latent HIV-1 in the J89GFP cells was measured by quantifying the percentage of EGFP positive cells using a BD FACScan flow cytometer with BD FACSDiva software (BD Biosciences, CA), as described previously. Reactivation of latent HIV-1 in the ACH-2 and U 1 cells was assessed by quantitative analysis of initiated and elongated HIV-1 transcripts, as described previously. All 3 cell lines were maintained in RMPI 1640 medium supplemented with 10% FBS, 0.3 mg/mL L-glutamine, 100 U/mL penicillin, and 100 µg/mL streptomycin at 37°C in humidified air with 5% CO2.
# Figure 2 Latent HIV-1 reactivation activity of 57704, alone and in combination with other inducing agents, in the U1 and ACH2 cell line models of virus latency. HIV-1 expression was assessed by quantitative PCR analysis of early and late viral RNA transcripts. Where appropriate, TNFα was used as an activation control. (A) Latent HIV-1 reactivation of activity 57704 in the J89GFP cell line. […] EC50 values were determined in Sigma Plot by nonlinear regression, as described previously. […]
# [2] = Cytotoxicity (MTT or CellTiter 96), HeLa; assay type: cell-based; conditions: human, HeLa cells; 24 hour incubation; mean ± SD, 3 replicates
# Method: Following a 24 hour incubation period, cell viability was measured using either the MTT (Roche Applied Science, Indianapolis, IN) or CellTiter 96 proliferation (Promega, WI) assay.
# purified T cells = test: Global T cell activation (surface expression of CD69, CD38 and HLA-DR); assay type: cell-based; conditions: different concentrations, up to 5 days
# Text: Peripheral blood MNC were obtained from the blood of healthy donors by Ficoll-Paque PLUS (GE Healthcare, Piscataway, NJ) density gradient centrifugation. T cells were isolated using the Pan T Cell Isolation kit (Miltenyi Biotec, Auburn, CA) according to manufacturer's instruction. Briefly, non-T cells were depleted from the MNC using biotin-conjugated antibodies to CD14, CD15, CD16, CD19, CD34, CD36, CD56, CD123, and CD235a and anti-biotin-labeled magnetic beads. […] Cells were then washed twice with PBS, resuspended in PBS with 4% PFA and stored in the refrigerator until analysis. Samples were analyzed on a BD LSRII flow cytometer and analyzed using FACsDiva software (BD Biosciences, Mountain View, CA). Forward versus side scatter plot was used to define the live cell population and fluorescence gates were set based on isotype control fluorescence.
# Akt phosphorylation = test: Western blot analysis of phosphorylated Akt in J89GFP cells; assay type: cell-based; conditions: 5 µM 57704
# Method: To gain insight into the mechanism by which 57704 reactivates latent HIV-1, we evaluated its activity in combination with inhibitors of different signaling pathways or kinases in J89GFP cells (Fig. 4A, B). […] To determine whether 57704 directly activated the PI3K/Akt signaling pathway, we next assessed the levels of Akt phosphorylation in the J89GFP cells after exposure to 5 µM 57704.
# PI3K p110β RNA = assay type: cell-based; conditions: J89GFP cells; 5 µM
# HDAC1 = target: T1, HDAC1 (Homo sapiens, UniProt Q13547); test: Fluorogenic HDAC activity assay, HDAC1; assay type: biochemical
# T1 construct: purchased BPS Bioscience (San Diego, CA)
# Method: The lysine deacetylase activity of HDACs 1, 2, 3, and 8 was assessed using the Fluorogenic HDAC Assay (BPS Bioscience, San Diego, CA) according to the manufacturer's instructions. The HDAC3 used in this assay was complexed with human nuclear receptor co-repressor 2 (NCOR2; amino acids 395–489), which is an activating co-factor of this HDAC isoform. All assays were carried out under steady-state conditions and the assay read-out was optimized for linearity both as a function of time and enzyme concentration. The formation of the fluorescent product was measured using a SpectraMax M2 Plate Reader (Molecular Devices, CA). The excitation and emission wavelengths were 360 nm and 450 nm, respectively. […]
# HDAC8 = target: T2, HDAC8 (Homo sapiens, UniProt Q9BY41); test: Fluorogenic HDAC activity assay, HDAC8; assay type: biochemical
# T2 construct: purchased BPS Bioscience (San Diego, CA)
# T2 sequence (Q9BY41 1-377): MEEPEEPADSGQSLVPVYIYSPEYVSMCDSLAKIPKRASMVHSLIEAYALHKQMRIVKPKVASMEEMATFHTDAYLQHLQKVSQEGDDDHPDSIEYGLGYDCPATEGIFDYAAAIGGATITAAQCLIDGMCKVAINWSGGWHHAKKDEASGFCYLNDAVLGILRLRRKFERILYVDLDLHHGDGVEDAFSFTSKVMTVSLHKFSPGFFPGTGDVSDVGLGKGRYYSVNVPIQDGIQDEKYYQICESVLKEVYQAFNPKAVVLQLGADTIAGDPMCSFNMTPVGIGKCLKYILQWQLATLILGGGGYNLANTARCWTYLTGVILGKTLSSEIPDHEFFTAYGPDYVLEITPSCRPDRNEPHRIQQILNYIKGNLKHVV
# Method: The lysine deacetylase activity of HDACs 1, 2, 3, and 8 was assessed using the Fluorogenic HDAC Assay (BPS Bioscience, San Diego, CA) according to the manufacturer's instructions. […] All assays were carried out under steady-state conditions and the assay read-out was optimized for linearity both as a function of time and enzyme concentration. The formation of the fluorescent product was measured using a SpectraMax M2 Plate Reader (Molecular Devices, CA). The excitation and emission wavelengths were 360 nm and 450 nm, respectively.
# T1 sequence (Q13547 whole entry): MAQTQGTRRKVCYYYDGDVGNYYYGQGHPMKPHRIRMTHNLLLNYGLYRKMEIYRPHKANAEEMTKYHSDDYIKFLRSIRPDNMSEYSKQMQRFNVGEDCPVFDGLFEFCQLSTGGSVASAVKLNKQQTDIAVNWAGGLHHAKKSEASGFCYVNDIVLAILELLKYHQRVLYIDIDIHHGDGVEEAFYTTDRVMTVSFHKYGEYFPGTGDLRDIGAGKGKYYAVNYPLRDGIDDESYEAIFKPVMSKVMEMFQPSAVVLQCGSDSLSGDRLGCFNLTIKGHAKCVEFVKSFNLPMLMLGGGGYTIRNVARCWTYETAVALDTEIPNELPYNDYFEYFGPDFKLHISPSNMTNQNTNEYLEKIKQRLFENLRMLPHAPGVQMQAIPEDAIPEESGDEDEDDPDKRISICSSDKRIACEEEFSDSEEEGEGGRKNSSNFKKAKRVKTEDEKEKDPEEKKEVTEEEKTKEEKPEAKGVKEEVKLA
compound,measurement,setting,value
"COc1cc2c(cc1OC)-c1c(OC)c(OC)cc3ccnc(c13)C2=O [Compound 57704, 1,2,9,10-tetramethoxy-7H-dibenzo[de,g]quinolin-7-one]",EC50,"[1]; Human immunodeficiency virus 1, ACH-2, read-out: EC50, activation of early HIV-1 gene transcript expression",9 µM
same,EC50,"[1]; Human immunodeficiency virus 1, ACH-2, read-out: EC50, activation of late HIV-1 gene transcript expression",6.2 µM
same,CC50 at 24 h,[2],293 ± 56.4 µM
same,"Surface expression of CD69, CD38 and HLA-DR",purified T cells,did not up-regulate
same,Akt phosphorylation (Western blot),Akt phosphorylation,increased Akt phosphorylation
same,Decrease of PI3K p110β RNA levels,PI3K p110β RNA,~2 fold
same,IC50,HDAC1,> 50 µM
same,IC50,HDAC8,> 50 µM
